Where “and” joins values, the source holds several entries; their conditions need not be identical. Identical values can stand only once.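 96-well plates; 48 h exposure; 5 concentrations. Endpoints by linear interpolation between flanking doses. Not reached: highest tested concentration assigned. At the GI50, growth is halved. TGI: concentration producing complete growth inhibition.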
Columns and labels:
Assay in all cases: growth of human tumour cells (NCI), 48 h; in the data active = GI50 below about 0.43 µM; inactive = the rest
[1] = system: SW-620 colon
[2] = system: ACHN renal
[3] = system: SK-MEL-5 melanoma
[4] = system: MALME-3M melanoma
[5] = system: M14 melanoma
[6] = system: SNB-19 CNS
[7] = system: HCT-116 colon
[8] = system: CCRF-CEM leukemia
[9] = system: OVCAR-5 ovarian
[10] = system: NCI/ADR-RES ovarian

CN(c1ccccc1)c1c(Cl)c(=O)oc2c1ccc1occc12
> 100 µM: TGI [1] | TGI [2] | TGI [3] | TGI [4] | TGI [5] | TGI [6] | TGI [7] | TGI [8] | TGI [9]

CCOC(=O)C1(C)CCCCC(=O)N1 (centres undefined)
> 100 µM: TGI [1] | TGI [2] | TGI [4] | TGI [5] | TGI [6]

O=P(O)(O)C1(P(=O)(O)O)CC1
> 100 µM: TGI [1] | TGI [2] | TGI [3] | TGI [4] | TGI [5] | TGI [6] | TGI [7] | TGI [8] | TGI [9]

COc1ccc(/C(C#N)=C2C=C/C(=N/O)c3ccccc3\2)cc1
active: GI50 [1] 0.262 µM | GI50 [2] 0.318 µM | GI50 [10] 0.125 µM | GI50 [3] 0.323 µM | GI50 [5] 0.228 µM | GI50 [7] 0.328 µM | GI50 [8] 0.254 µM
2.01 µM: TGI [5]
16.5 µM: TGI [9]
11 µM: TGI [7]
15.4 µM: TGI [2]
12.6 µM: TGI [8]
2.94 µM: TGI [10]
29.6 µM: TGI [6]
14.4 µM: TGI [1]
1.26 µM: TGI [3]
inactive: GI50 [6] 2.8 µM | GI50 [9] 2.96 µM

COc1cc(CCc2ccc(N)cc2)cc(OC)c1OC
> 80 µM: TGI [4]
> 100 µM: TGI [1] | TGI [2] | TGI [5] | TGI [6] | TGI [7] | TGI [8] | TGI [9]
> 89.6 µM: TGI [3]

CCCCCCC[CH2][Sn]1([CH2]CCCCCCC)[O]C(=O)c2cccnc2[O]1
> 100 µM: TGI [1] | TGI [2] | TGI [3] | TGI [4] | TGI [5] | TGI [6] | TGI [7] | TGI [8] | TGI [9]
inactive: GI50 [1] > 100 µM | GI50 [2] > 100 µM | GI50 [3] > 100 µM | GI50 [4] > 100 µM | GI50 [5] > 100 µM | GI50 [6] > 100 µM | GI50 [7] > 100 µM | GI50 [8] > 100 µM | GI50 [9] > 100 µM

ClC(Cl)[Si]12OCCN(CCO1)CCO2
> 100 µM: TGI [1] | TGI [2] | TGI [3] | TGI [4] | TGI [6] | TGI [7] | TGI [8] | TGI [9]

CCSc1c2ccccc2c(-c2nc(F)nc(F)n2)n1CCc1ccccc1
> 100 µM: TGI [1] | TGI [2] | TGI [4] | TGI [5] | TGI [6] | TGI [7] | TGI [8] | TGI [9]

C[C@]12CCC3[C@@H](CC[C@@H]4c5nonc5CC[C@]34C)C1CC[C@@H]2O (some centres undefined)
41 µM: TGI [3]
> 100 µM: TGI [1] | TGI [6] | TGI [9]
54.8 µM: TGI [8]
69.3 µM: TGI [4]
66.3 µM: TGI [2]
53 µM: TGI [5]

Nc1ncnc2c1ncn2C1OC(CO)C(O)C1N (centres undefined)
> 100 µM: TGI [1] | TGI [2] | TGI [10] | TGI [3] | TGI [4] | TGI [5] | TGI [6] | TGI [7] | TGI [9]

COc1cccc(-c2cc(=O)c3ccccc3[nH]2)c1
> 100 µM: TGI [1] | TGI [2] | TGI [3] | TGI [4] | TGI [5] | TGI [6] | TGI [7] | TGI [8] | TGI [9]

Cc1ccc(S(=O)(=O)NC(CN)C(=O)O)cc1 (centres undefined)
> 100 µM: TGI [1] | TGI [2] | TGI [10] | TGI [3] | TGI [4] | TGI [5] | TGI [6] | TGI [7] | TGI [9]

Nc1c(Cl)ncnc1NCCCNc1ncnc(Cl)c1N
> 100 µM: TGI [1] | TGI [2] | TGI [3] | TGI [5] | TGI [6] | TGI [7] | TGI [8] | TGI [9]

CN(CCCNC(=O)CCOCCOCCOCCNC(=O)Cc1ccc2ccc3cccc4ccc1c2c34)CCCNc1cc(-c2ccc3ccccc3c2)nc2ccccc12
inactive: GI50 [2] 0.823 µM | GI50 [10] 4.22 µM | GI50 [3] 0.541 µM | GI50 [5] 0.591 µM | GI50 [6] 0.51 µM | GI50 [9] 0.635 µM
10.6 µM: TGI [10]
1.14 µM: TGI [5]
0.991 µM: TGI [6]
1.01 µM: TGI [3]
32.5 µM: TGI [7]
0.654 µM: TGI [1]
1.18 µM: TGI [9]
active: GI50 [1] 0.247 µM | GI50 [7] 0.13 µM
2.2 µM: TGI [2]

CC[C@H](C)[C@H](NC(=O)[C@H]1CCCCN1C)C(=O)N(C)[C@H](C[C@@H](OC(C)=O)c1nc(C(=O)N[C@@H](Cc2ccccc2)C[C@H](C)C(=O)O)cs1)C(C)C
2.49 µM: TGI [8]
< 0.00165 µM: TGI [5]
0.0102 µM and < 0.00165 µM: TGI [3]
0.017 µM: TGI [7]
active: GI50 [1] 0.000332 µM and 0.00165 µM | GI50 [2] 0.00481 µM and 0.00165 µM | GI50 [10] 0.00473 µM and 0.00165 µM | GI50 [3] 0.00013 µM and < 0.00165 µM | GI50 [5] 0.000337 µM and < 0.00165 µM | GI50 [6] 0.000595 µM and 0.00165 µM | GI50 [7] 0.000404 µM and 0.00165 µM | GI50 [8] 0.000392 µM and 0.00165 µM | GI50 [9] 0.00324 µM and 0.00165 µM
> 16.5 µM: TGI [1] | TGI [2] | TGI [6] | TGI [9]

Cc1ccc(S(=O)(=O)N/N=C(/c2nc3ccc([N+](=O)[O-])cc3[nH]c2=O)C(O)c2ccc(C(O)/C(=N\NS(=O)(=O)c3ccc(C)cc3)c3nc4ccc([N+](=O)[O-])cc4[nH]c3=O)cc2)cc1 (centres undefined)
> 100 µM: TGI [1] | TGI [2] | TGI [3] | TGI [4] | TGI [5] | TGI [6] | TGI [7] | TGI [8] | TGI [9]

CN1CCN(CCCOc2cccc3nc(Nc4ccc(Cl)c(C(F)(F)F)c4)ccc23)CC1
3.48 µM: TGI [5]
inactive: GI50 [1] 1.89 µM | GI50 [2] 1.59 µM | GI50 [10] 1.73 µM | GI50 [3] 1.69 µM | GI50 [4] 1.75 µM | GI50 [5] 1.81 µM | GI50 [6] 1.64 µM | GI50 [7] 1.5 µM | GI50 [9] 1.85 µM
3.13 µM: TGI [3]
3.45 µM: TGI [4]
3.37 µM: TGI [10]
3.07 µM: TGI [2]
3.14 µM: TGI [6]
3.41 µM: TGI [9]
3.83 µM: TGI [1]
2.84 µM: TGI [7]

Nc1ncnc2c1ncn2C1CC(OCc2ccccc2[N+](=O)[O-])C(CO)O1 (centres undefined)
47.6 µM: TGI [2]
> 50 µM: TGI [1] | TGI [4] | TGI [5] | TGI [6] | TGI [7] | TGI [8] | TGI [9]

N=c1c2c(=N)n3c(nc2nc2n1-c1ccccc1Sc1ccccc1-2)sc1cc(Cl)ccc13
inactive: GI50 [1] 3.14 µM | GI50 [2] 2.18 µM | GI50 [10] 1.84 µM | GI50 [3] 1.12 µM | GI50 [5] 4.11 µM | GI50 [6] 2.88 µM | GI50 [7] 1.86 µM | GI50 [8] 2.59 µM | GI50 [9] 7.55 µM
> 100 µM: TGI [2] | TGI [5] | TGI [7] | TGI [8]
4 µM: TGI [3]
38.9 µM: TGI [9]
68.7 µM: TGI [6]
44.6 µM: TGI [10]
71.1 µM: TGI [1]

c1ccc2c(c1)cc1n2CC2CN=NC12 (centres undefined)
> 100 µM: TGI [1] | TGI [2] | TGI [3] | TGI [4] | TGI [5] | TGI [6] | TGI [7] | TGI [9]

COC(=O)C=Cc1ccc2nncnc2c1 (mixture of isomers)
42.6 µM: TGI [5]
20.8 µM: TGI [3]
> 100 µM: TGI [1] | TGI [2] | TGI [10] | TGI [6] | TGI [7] | TGI [8] | TGI [9]

CC1=C(C(=O)Nc2cc(F)c(F)cc2F)C(c2ccc([N+](=O)[O-])cc2)C(C(=O)Nc2cc(F)c(F)cc2F)=C(C)N1
78.7 µM: TGI [8]
> 100 µM: TGI [1] | TGI [2] | TGI [3] | TGI [4] | TGI [5] | TGI [6] | TGI [7] | TGI [9]

Cn1nc(-c2ccccc2)c2c(/C=C/c3ccccc3)onc2c1=O
> 100 µM: TGI [2] | TGI [3] | TGI [4] | TGI [5] | TGI [6] | TGI [7] | TGI [8] | TGI [9]

CC(=O)C1=C(O)C2C3c4c[nH]c5cccc(c45)CC3C(C)(C)N2C1=O (centres undefined)
27.2 µM: TGI [3]
> 100 µM: TGI [1] | TGI [2] | TGI [4] | TGI [5] | TGI [6] | TGI [8] | TGI [9]

C=C1C(=O)OC2/C=C(/C)C(OC(C)=O)C/C=C(\C)C(OC(=O)C3(C)OC3C)C(O)C12 (centres undefined)
> 100 µM: TGI [1] | TGI [2] | TGI [10] | TGI [3] | TGI [5] | TGI [6] | TGI [7] | TGI [8] | TGI [9]

CCOc1ccc(NC(=O)CC2C(=O)Nc3ccccc3S2(=O)=O)cc1 (centres undefined)
> 100 µM: TGI [1] | TGI [2] | TGI [4] | TGI [6] | TGI [7] | TGI [9]

CCc1nc(N)nc(N)c1-c1ccc(N2CCNCC2)cc1
> 93.3 µM: TGI [6]
40.9 µM: TGI [3]
> 83.9 µM: TGI [5]
> 100 µM: TGI [1] | TGI [2] | TGI [10] | TGI [7] | TGI [9]
> 86.7 µM: TGI [8]

CC(=O)OC1COC(n2c(=S)n(-c3ccccc3)c(=O)c3ccccc32)C(OC(C)=O)C1OC(C)=O (centres undefined)
> 100 µM: TGI [1] | TGI [2] | TGI [3] | TGI [4] | TGI [5] | TGI [6] | TGI [7] | TGI [8] | TGI [9]

C=CCc1cc(OC)c2c(c1)C(OC)CC(c1ccc(OC)c(OC)c1)O2 (centres undefined)
> 100 µM: TGI [1] | TGI [2] | TGI [3] | TGI [4] | TGI [5] | TGI [6] | TGI [7] | TGI [8] | TGI [9]

CC1(C)C(=O)C(C)(C)C1=S
> 100 µM: TGI [1] | TGI [2] | TGI [3] | TGI [4] | TGI [5] | TGI [6] | TGI [7] | TGI [8] | TGI [9]

CN1c2ccccc2N(C(=O)c2ccccc2)C(CC(=O)O)c2cccn21 (centres undefined)
> 100 µM: TGI [1] | TGI [2] | TGI [3] | TGI [4] | TGI [5] | TGI [6] | TGI [8] | TGI [9]
